Test results as given in article PMC4185360 (Emerging Microbes & Infections, 2014).
Values joined by “and” are separate entries in the source; they are usually repeats but may differ in a detail not shown here. Identical values can stand only once. Counter-ions that a name gives are not always drawn. Like-named read-outs stand apart in the source and are kept apart here.

Legend:
[1] = tested on: EV71; test: Antiviral potency assay, viral load by qRT-PCR in RD cells; assay type: cell-based; settings: for IC90: read-out: IC90, EV71 replication (viral load by qRT-PCR)
[2] = tested on: coxsackievirus A16; assay type: cell-based, Coxsackie virus A16 (strain shzh05-1); settings: 50 µM
[3] = tested on: poliovirus-1 (Sabin); assay type: cell-based; settings: TCID50 reduction assay
[4] = tested on: EV71; test: Time-of-addition assay, single round viral replication in RD cells; assay type: cell-based; settings: 10 µM
Procedure: Single round viral replication is get by infecting RD cell at multiplicity of infection of 5, collecting at 16 h post infection, and testing culture supernatant and intracellular RNA at 16 h post infection.
(A) Time of addition assay. The viral load in supernatant represents the means±s.e.m. of results of experiment with three replicates, and the intracellular viral load represents the result of a single test. […] Data represents the means±s.e.m. of results of experiment with three replications.

[5] = tested on: EV71; test: Viral attachment assay (cell-virus adsorption at 4°C); assay type: cell-based; settings: Enterovirus A, incubated with cells and virus at 4°C, read-out: IC90, virus binding to the cell
[6] = tested on: EV71 particles; test: STD NMR assay of binding to EV71 particles; settings: inactivated, purified EV71; molar ratio 1:100
[7] = cited from earlier work
[8] = source not given; cited from earlier work
[9] = target: T1, CYP1A2 (Homo sapiens, UniProt P05177); test: in vitro; settings: microsomes
T1 sequence (P05177 1-516): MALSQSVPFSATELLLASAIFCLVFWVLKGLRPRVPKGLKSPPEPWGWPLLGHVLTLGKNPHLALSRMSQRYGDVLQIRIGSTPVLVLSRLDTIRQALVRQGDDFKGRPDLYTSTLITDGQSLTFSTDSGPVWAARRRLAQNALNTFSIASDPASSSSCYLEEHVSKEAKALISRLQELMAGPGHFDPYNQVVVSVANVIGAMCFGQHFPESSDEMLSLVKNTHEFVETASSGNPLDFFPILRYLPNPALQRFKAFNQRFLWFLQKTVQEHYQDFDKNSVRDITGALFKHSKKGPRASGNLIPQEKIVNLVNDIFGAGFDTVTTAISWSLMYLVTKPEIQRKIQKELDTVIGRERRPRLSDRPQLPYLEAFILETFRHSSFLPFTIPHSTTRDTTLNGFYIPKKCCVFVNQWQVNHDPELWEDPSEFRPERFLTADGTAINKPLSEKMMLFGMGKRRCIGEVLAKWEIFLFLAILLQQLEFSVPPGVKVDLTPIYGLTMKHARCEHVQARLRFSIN

[10] = target: T2, CYP2C9 (Homo sapiens, UniProt P11712); test: in vitro; settings: microsomes
T2 sequence (P11712 whole entry): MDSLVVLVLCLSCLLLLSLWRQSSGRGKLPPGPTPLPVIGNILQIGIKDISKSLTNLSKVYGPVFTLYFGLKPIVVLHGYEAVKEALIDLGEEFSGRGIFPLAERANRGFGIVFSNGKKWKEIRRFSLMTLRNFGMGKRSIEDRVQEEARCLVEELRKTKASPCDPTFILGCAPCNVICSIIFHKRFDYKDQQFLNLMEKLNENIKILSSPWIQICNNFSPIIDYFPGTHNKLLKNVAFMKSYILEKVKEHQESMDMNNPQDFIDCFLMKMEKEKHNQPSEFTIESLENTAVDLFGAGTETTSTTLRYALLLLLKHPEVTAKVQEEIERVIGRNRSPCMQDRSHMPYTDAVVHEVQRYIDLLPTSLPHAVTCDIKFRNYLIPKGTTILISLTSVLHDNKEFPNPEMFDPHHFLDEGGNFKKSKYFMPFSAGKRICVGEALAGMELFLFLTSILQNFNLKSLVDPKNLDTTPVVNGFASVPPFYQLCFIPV

[11] = target: T3, CYP2D6 (Homo sapiens, UniProt P10635); test: in vitro; settings: human microsomes, probe marker substrate cocktail, O-demethylation (CYP2D6)
T3 sequence (P10635 whole entry): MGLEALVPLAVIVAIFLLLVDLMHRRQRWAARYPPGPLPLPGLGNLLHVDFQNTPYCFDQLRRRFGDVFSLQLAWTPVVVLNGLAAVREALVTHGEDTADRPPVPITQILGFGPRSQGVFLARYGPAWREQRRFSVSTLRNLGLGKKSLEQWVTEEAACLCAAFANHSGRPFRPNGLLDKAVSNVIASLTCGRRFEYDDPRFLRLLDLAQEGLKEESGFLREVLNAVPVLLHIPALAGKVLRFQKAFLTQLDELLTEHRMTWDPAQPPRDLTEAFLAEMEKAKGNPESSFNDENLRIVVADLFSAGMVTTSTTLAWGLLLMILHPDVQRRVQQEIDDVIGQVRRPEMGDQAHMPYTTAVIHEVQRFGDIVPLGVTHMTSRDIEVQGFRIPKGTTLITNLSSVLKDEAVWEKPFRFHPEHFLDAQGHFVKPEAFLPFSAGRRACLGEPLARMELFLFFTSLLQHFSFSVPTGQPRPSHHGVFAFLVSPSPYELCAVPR

[12] = target: CYP3A4 (Homo sapiens, UniProt P08684); test: in vitro; settings: human microsomes, probe marker substrate cocktail, 1′-hydroxylation (CYP3A4)
CYP3A4, sequence (P08684 whole entry): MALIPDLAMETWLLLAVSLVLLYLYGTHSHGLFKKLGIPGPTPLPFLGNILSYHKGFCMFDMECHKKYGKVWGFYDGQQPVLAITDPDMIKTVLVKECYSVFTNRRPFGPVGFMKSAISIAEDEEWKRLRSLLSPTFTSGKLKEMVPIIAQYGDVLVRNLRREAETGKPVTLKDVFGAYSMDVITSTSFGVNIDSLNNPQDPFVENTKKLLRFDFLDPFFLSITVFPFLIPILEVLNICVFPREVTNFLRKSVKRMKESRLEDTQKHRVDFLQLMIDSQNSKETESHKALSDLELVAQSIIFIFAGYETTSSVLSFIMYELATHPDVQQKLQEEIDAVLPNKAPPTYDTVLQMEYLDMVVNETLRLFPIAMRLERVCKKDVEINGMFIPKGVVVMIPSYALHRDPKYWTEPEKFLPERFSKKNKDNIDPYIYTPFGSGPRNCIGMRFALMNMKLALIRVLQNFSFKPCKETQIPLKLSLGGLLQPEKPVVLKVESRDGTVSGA

[13] = target: T2, CYP2C9; test: biochemical
[14] = target: T3, CYP2D6; test: biochemical
[15] = Cynomolgus monkey plasma pharmacokinetics; settings: male, iv, 4.37 mg/kg; for AUC(0-inf): AUC0-inf; for AUC(0-t): AUC0-last; for clearance: Cl; for Vd: Vdss
[16] = tested on: mouse-adapted EV71 strain MP10; test: In vivo anti-EV71 efficacy in 10-day-old ICR mice; settings: lethal dose EV71 MP10
[17] = tested on: EV71 FY-23; test: In vivo anti-EV71 efficacy in adult rhesus monkeys; settings: 50 mg/kg i.v. four times, between days 6 and 9 post-infection
[18] = Enterovirus A, EV71 isolate Fuyang573, RD cells
[19] = mean of 3 monkeys, 4.37 mg/kg i.v. bolus
[20] = monkey P101, 4.37 mg/kg i.v. bolus
[21] = monkey P102, 4.37 mg/kg i.v. bolus
[22] = monkey P103, 4.37 mg/kg i.v. bolus

`O=S(=O)(O)c1cc(N=C=S)ccc1/C=C/c1ccc(N=C=S)cc1S(=O)(=O)O` [DIDS, 4,4′-diisothiocyanatostilbene-2,2′-disulfonic acid disodium salt] showed an IC90 ([1]; Enterovirus A, EV71, RD) of 10.3 µM.

`O=C(Nc1cccc(C(=O)Nc2ccc(S(=O)(=O)O)c3cc(S(=O)(=O)O)cc(S(=O)(=O)O)c23)c1)Nc1cccc(C(=O)Nc2ccc(S(=O)(=O)O)c3cc(S(=O)(=O)O)cc(S(=O)(=O)O)c23)c1` [NF 023, 8,8′-[carbonylbis(imino-3,1-phenylenecarbonylimino)]bis-1,3,5-naphthalene-trisulphonic acid, hexasodium salt] showed an IC90 [1, 18] of 8.9 µM.

`O=C(Nc1cc(C(=O)Nc2ccc(S(=O)(=O)O)cc2S(=O)(=O)O)cc(C(=O)Nc2ccc(S(=O)(=O)O)cc2S(=O)(=O)O)c1)Nc1cc(C(=O)Nc2ccc(S(=O)(=O)O)cc2S(=O)(=O)O)cc(C(=O)Nc2ccc(S(=O)(=O)O)cc2S(=O)(=O)O)c1` [NF 449, 4,4′,4″,4″′-[carbonylbis(imino-5,1,3-benzenetriyl-bis(carbonylimino))]tetrakis-1,3-benzenedisulfonic acid, octasodium salt] showed an IC90 [1, 18] of 0.9 µM.

For `Cc1nc(/N=N/c2ccc(S(=O)(=O)O)cc2S(=O)(=O)O)c(COP(=O)(O)O)c(C=O)c1O` [PPADS, pyridoxal phosphate-6-azo (benzene-2,4-disulfonic acid) tetrasodium salt hydrate], the IC90 [1, 18] was 7 µM.

`Cc1nc(/N=N/c2cc(S(=O)(=O)O)ccc2S(=O)(=O)O)c(COP(=O)(O)O)c(C=O)c1O` [iso-PPADS, pyridoxalphosphate-6-azophenyl-2′,5′-disulfonic acid tetrasodium salt] showed an IC90 [1, 18] of 6.4 µM.

In the case of `Cc1ccc(C(=O)Nc2ccc(S(=O)(=O)O)c3cc(S(=O)(=O)O)cc(S(=O)(=O)O)c23)cc1NC(=O)c1cccc(NC(=O)Nc2cccc(C(=O)Nc3cc(C(=O)Nc4ccc(S(=O)(=O)O)c5cc(S(=O)(=O)O)cc(S(=O)(=O)O)c45)ccc3C)c2)c1` [suramin, Suramin sodium salt], the “reduction of coxsackievirus A16 replication” value [2] is reported as 10^6 TCID50/mL, the “inhibition of poliovirus-1 (Sabin)” value [3] is reported as “not inhibited” and the “effect on viral replication” value ([4]; added after adsorption) is reported as “no effect”. The “decrease of viral replication” value ([4]; added at the virus-cell adsorption stage) was greater than 1 log10, the IC90 [5] was 6.17 µM and the “STD NMR signals with EV71 particles” value [6] was “strong STD NMR signals”. The half-life [7] was “long”, the serum protein binding [8] was “high levels” and the inhibition at 10 min, 10 µM [9] was 40%. It also gave an inhibition at 10 min, 30 µM [9] of 70%, an inhibition at 10 min, 100 µM [9] of 89% and an inhibition at 10 min, 10 µM [10] of 0%. The inhibition at 10 min, 30 µM [10] was 8%, the inhibition at 10 min, 100 µM [10] was 32% and the inhibition at 10 min, 10 µM [11] was 7%. It also gave an inhibition at 10 min, 30 µM [11] of 40%, an inhibition at 10 min, 100 µM [11] of 49% and an inhibition at 10 min, 10 µM [12] of 5%. For the same compound, the inhibition at 10 min, 30 µM [12] was 16%, the inhibition at 10 min, 100 µM [12] was 34% and the IC50 [13] was greater than 100 µM. The IC50 [14] was > 100 µM (2×) and 45.5 µM, the AUC(0-inf) [15, 19] was 2330 µg·h/mL and the AUC(0-inf) [15, 20] was 1960 µg·h/mL. It also gave an AUC(0-inf) [15, 21] of 2400 µg·h/mL, an AUC(0-inf) [15, 22] of 2620 µg·h/mL and an AUC(0-t) [15, 19] of 1800 µg·h/mL. For the same compound, the AUC(0-t) [15, 20] was 1660 µg·h/mL, the AUC(0-t) [15, 21] was 1810 µg·h/mL and the AUC(0-t) [15, 22] was 1930 µg·h/mL. For the same compound, the C0 ([15]; C0, mean of 3 monkeys, 4.37 mg/kg i.v. bolus) was 128 µg/mL, the C0 ([15]; C0, monkey P101, 4.37 mg/kg i.v. bolus) was 143 µg/mL and the C0 ([15]; C0, monkey P102, 4.37 mg/kg i.v. bolus) was 96.3 µg/mL. It also gave a C0 ([15]; C0, monkey P103, 4.37 mg/kg i.v. bolus) of 146 µg/mL, a clearance [15, 19] of 1.9 mL/h/kg and a clearance [15, 20] of 2.23 mL/h/kg. For the same compound, the clearance [15, 21] was 1.82 mL/h/kg, the clearance [15, 22] was 1.67 mL/h/kg and the Cmax [15, 19] was 142 µg/mL. The Cmax [15, 20] was 169 µg/mL, the Cmax [15, 21] was 117 µg/mL and the Cmax [15, 22] was 141 µg/mL. For the same compound, the half-life ([15]; T1/2, mean of 3 monkeys, 4.37 mg/kg i.v. bolus) was 104 h, the half-life ([15]; T1/2, monkey P101, 4.37 mg/kg i.v. bolus) was 69.1 h and the half-life ([15]; T1/2, monkey P102, 4.37 mg/kg i.v. bolus) was 112 h. For the same compound, the half-life ([15]; T1/2, monkey P103, 4.37 mg/kg i.v. bolus) was 130 h, the Tmax [15, 19] was 3.6 min and the Tmax [15, 20] was 4.8 min. It also gave a Tmax [15, 21] of 4.8 min, a Tmax [15, 22] of 1.8 min and a Vd [15, 19] of 0.199 L/kg. It also gave a Vd [15, 20] of 0.176 L/kg, a Vd [15, 21] of 0.212 L/kg and a Vd [15, 22] of 0.21 L/kg. The survival rate ([16]; 50 mg/kg i.p. twice daily for 7 days) was 30%, the decrease of mortality ([16]; mice) was 30% and the “viral genomic RNA in serum” value [17] was < 20 copies of viral genomic RNA/mL.

With Sucralfate sodium the IC90 ([1]; EV71 isolate Fuyang573, RD cells) was 3.3 µM.

With heparin sodium salt the “IC90, EV71 replication” value [1] was 24.3 µg/mL.
